Data on two compounds can be found in ChEMBL document CHEMBL4837181 (Eur J Med Chem, 2020).

Molecules are shown by their SMILES.

Data set [1] in a line: Genotoxicity in monkey. Particulars: rhesus monkey. The data set is classed as toxicity, Macaca mulatta.
Data set [2] can be described thus: Oral bioavailability in male cynomolgus monkey at 75 mg/kg. The data set is classed as ADME, organism-based, Macaca fascicularis. Particulars: in vivo.
Data set [3] in a line: Chemical stability of compound in simulated intestinal fluid assessed as compound remaining at 5 uM measured after 24 hrs by LC-MS/MS analysis. Format: ADME, physicochemical. Particulars: read-out: Stabilty.
A further data set deals with CYP3A4 (Homo sapiens, UniProt P08684). The data set can be described thus: Time dependent inhibition of CYP3A4 in human hepatocytes assessed as fold shift relative to control. The data set is classed as ADME, cell-based, Hepatocyte. Particulars: read-out: FC.
Data set [4] in a line: Chemical stability of compound in 0.1 N aqueous HCl buffer assessed as compound remaining at pH 1 at 5 uM measured after 24 hrs by LC-MS/MS analysis. The data set is classed as physicochemical. The following applies: pH 1, 24 h.
Data set [5] in a line: Toxicity in po BID rat assessed as NOAEL. Format: organism-based. Particulars: in vivo.
A short description of data set [6]: Toxicity in cynomolgus monkey assessed as NOAEL at 150 mg/kg, po BID administered for 28 days. Format: organism-based, Macaca fascicularis. Particulars: in vivo, time 28 day.
In data set [7] the target is T1, Solute carrier organic anion transporter family member 1B3 (Homo sapiens, UniProt Q9NPD5).
T1 sequence (Q9NPD5 whole entry): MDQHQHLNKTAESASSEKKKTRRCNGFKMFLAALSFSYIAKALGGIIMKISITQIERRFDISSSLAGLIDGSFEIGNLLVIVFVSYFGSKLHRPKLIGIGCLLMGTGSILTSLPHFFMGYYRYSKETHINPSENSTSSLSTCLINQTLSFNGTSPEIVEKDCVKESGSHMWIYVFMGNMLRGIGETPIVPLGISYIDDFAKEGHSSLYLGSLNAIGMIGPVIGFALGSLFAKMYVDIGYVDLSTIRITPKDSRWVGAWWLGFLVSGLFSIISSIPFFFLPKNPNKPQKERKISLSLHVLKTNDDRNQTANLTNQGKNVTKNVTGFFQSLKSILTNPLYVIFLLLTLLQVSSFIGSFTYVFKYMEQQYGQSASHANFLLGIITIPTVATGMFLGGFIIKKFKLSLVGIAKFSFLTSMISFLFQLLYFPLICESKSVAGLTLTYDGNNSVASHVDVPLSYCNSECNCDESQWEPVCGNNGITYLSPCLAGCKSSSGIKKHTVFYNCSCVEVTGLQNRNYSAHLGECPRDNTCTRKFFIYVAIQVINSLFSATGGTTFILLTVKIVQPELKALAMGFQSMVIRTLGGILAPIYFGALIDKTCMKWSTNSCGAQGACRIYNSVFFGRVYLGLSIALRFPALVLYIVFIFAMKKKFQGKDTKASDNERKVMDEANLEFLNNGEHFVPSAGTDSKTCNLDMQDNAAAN
The experiment in a line: Inhibition of OATP1B3 (unknown origin) expressed in HEK293 cells. Format: cell-based.

A short description of data set [8]: Protein binding in cynomolgus monkey plasma. Format: ADME, cell-free, Macaca fascicularis. The following applies: read-out: PPB.
Data set [9] is described as follows: Drug metabolism in mouse assessed as indoximod formation by measuring indoximod Tmax at 20 to 900 mg/kg. Format: ADME, organism-based. Particulars: in vivo, dose 20-900 mg/kg.
Data set [10] in a line: Drug metabolism in rat assessed as indoximod formation by measuring indoximod Tmax at 20 to 900 mg/kg. The following applies: in vivo, dose 20-900 mg/kg. Format: ADME, organism-based.
Data set [11] can be described thus: Volume of distribution in male cynomolgus monkey at 15 mg/kg, iv measured on day 1. Particulars: in vivo. Format: ADME, organism-based, Macaca fascicularis.
The nature of data set [12]: Stability in human plasma assessed as parent compound remaining measured after 6 hrs by LC-MS/MS analysis. Format: ADME, cell-free. The following applies: read-out: Stabilty.
In the next data set the target is Cytochrome P450 2C19 (Homo sapiens, UniProt P33261). The experiment in a line: Inhibition of CYP2C19 in human hepatocytes. Format: ADME, cell-based, Hepatocyte.
The nature of data set [13]: Oral bioavailability in female cynomolgus monkey at 75 mg/kg. Particulars: in vivo. Format: ADME, organism-based, Macaca fascicularis.
A short description of data set [14]: AUC (0 to 24 hrs) in male cynomolgus monkey at 75 mg/kg, po BID measured on day 8. The data set is classed as ADME, organism-based, Macaca fascicularis. More on the design: time < 24 hr, route oral, dose 75 mg/kg. Particulars: in vivo.
Data set [15] is described as follows: Chemical stability of compound in saline assessed as compound remaining at 5 uM measured after 24 hrs by LC-MS/MS analysis. The data set is classed as physicochemical. Particulars: read-out: Stabilty.
A short description of data set [16]: Drug metabolism in cynomolgus monkey assessed as indoximod formation of by measuring indoximod Tmax at 75 to 675 mg/kg, po administered as single dose. Format: ADME, organism-based, Macaca fascicularis. Particulars: in vivo, dose 75-675 mg/kg.
Data set [17] is described as follows: Oral bioavailability in male cynomolgus monkey at 825 micromol/kg. The following applies: in vivo, at 825 µmol/kg. The data set is classed as ADME, organism-based, Macaca fascicularis.
Data set [18] is described as follows: Chemical stability of compound in 0.1 N aqueous HCl buffer assessed as compound remaining at pH 1 at 5 uM measured after 1.5 hrs by LC-MS/MS analysis. The data set is classed as physicochemical. Particulars: pH 1, 1.5 h.
Data set [19] can be described thus: Drug metabolism in cynomolgus monkey assessed as ratio of indoximod to parent compound at 15 mg/kg, iv administered as single dose. The data set is classed as ADME, organism-based, Macaca fascicularis. Particulars: in vivo.
Data set [20] is described as follows: Drug metabolism in rats assessed as formation of M9 metabolite at 20 to 900 mg/kg. Format: ADME, organism-based. Particulars: rat, in vivo; dose 20-900 mg/kg.
Data set [21] in a line: Toxicity in monkey assessed as change in cardiovascular parameter. Particulars: rhesus monkey, in vivo. Details: species or system Macaca mulatta.
Data set [22] can be described thus: Stability in human plasma assessed as parent compound remaining measured after 24 hrs by LC-MS/MS analysis. Format: ADME, cell-free. Particulars: read-out: Stabilty.
In another data set the target is OAT3 (Homo sapiens, UniProt Q8TCC7). The data set can be described thus: Inhibition of OAT3 (unknown origin) expressed in HEK293 cells. The data set is classed as cell-based.
A short description of data set [23]: Lipophilicity, logP of the compound. Format: physicochemical. The following applies: octanol/water.
Data set [24] can be described thus: Toxicity in monkey assessed as change in behavioral parameter. More on the design: species or system Macaca mulatta. The following applies: rhesus monkey, in vivo.
The nature of data set [25]: AUC (0 to 12 hrs) in female rat at 180 mg/kg, po BID measured on day 28. Format: ADME, organism-based. Details: time < 12 hr, route oral, dose 180 mg/kg. The following applies: in vivo.
Data set [26] can be described thus: Cmax in mouse at 62 mg/kg administered bid. Format: ADME, organism-based. More on the design: dose 62 mg/kg. The following applies: in vivo.
A short description of data set [27]: Oral bioavailability in rat. The data set is classed as ADME, organism-based. Particulars: in vivo.
A short description of data set [28]: Solubility of compound at pH 1. Format: physicochemical. The following applies: buffer.
Data set [29] is described as follows: AUC (0 to infinity) in human at 2400 mg administered bid. Format: ADME. More on the design: time infinity, dose 2400 mg. Particulars: in vivo.
Data set [30] is described as follows: Cmax in po BID dosed cynomolgus monkey administered for 28 days. Format: ADME, organism-based, Macaca fascicularis. Details: route oral, time 28 day. The following applies: in vivo.
The nature of data set [31]: Half life in mouse at 20 to 900 mg/kg, po. Format: ADME, organism-based. Particulars: in vivo, dose 20-900 mg/kg.
Data set [32] in a line: Apparent oral clearance in male cynomolgus monkey at 75 mg/kg, po measured on day 1. Particulars: in vivo. The data set is classed as ADME, organism-based, Macaca fascicularis.
Data set [33] is described as follows: Apparent oral clearance in female cynomolgus monkey at 150 mg/kg, po BID measured on day 8. The data set is classed as ADME, organism-based, Macaca fascicularis. Particulars: in vivo.
Data set [34] is described as follows: Average plasma concentration at steady state in mouse at 62 mg/kg administered bid. Format: ADME, organism-based. Particulars: in vivo.

Chain of CYP3A4 (P08684 whole entry): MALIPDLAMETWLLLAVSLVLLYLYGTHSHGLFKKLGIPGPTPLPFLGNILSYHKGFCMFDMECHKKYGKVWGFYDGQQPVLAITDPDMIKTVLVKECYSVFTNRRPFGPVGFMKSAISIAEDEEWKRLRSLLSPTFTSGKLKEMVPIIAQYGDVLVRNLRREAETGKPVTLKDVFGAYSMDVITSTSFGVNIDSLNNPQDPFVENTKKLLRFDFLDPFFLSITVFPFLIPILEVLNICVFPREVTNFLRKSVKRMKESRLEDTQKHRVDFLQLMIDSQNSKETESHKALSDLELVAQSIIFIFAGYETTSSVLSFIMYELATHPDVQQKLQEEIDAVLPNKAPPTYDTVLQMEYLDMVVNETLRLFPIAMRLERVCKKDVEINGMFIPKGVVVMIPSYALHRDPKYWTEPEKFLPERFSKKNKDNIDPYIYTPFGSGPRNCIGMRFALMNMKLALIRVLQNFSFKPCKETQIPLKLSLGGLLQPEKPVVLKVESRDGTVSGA
Chain of OAT3 (Q8TCC7 whole entry, looked up): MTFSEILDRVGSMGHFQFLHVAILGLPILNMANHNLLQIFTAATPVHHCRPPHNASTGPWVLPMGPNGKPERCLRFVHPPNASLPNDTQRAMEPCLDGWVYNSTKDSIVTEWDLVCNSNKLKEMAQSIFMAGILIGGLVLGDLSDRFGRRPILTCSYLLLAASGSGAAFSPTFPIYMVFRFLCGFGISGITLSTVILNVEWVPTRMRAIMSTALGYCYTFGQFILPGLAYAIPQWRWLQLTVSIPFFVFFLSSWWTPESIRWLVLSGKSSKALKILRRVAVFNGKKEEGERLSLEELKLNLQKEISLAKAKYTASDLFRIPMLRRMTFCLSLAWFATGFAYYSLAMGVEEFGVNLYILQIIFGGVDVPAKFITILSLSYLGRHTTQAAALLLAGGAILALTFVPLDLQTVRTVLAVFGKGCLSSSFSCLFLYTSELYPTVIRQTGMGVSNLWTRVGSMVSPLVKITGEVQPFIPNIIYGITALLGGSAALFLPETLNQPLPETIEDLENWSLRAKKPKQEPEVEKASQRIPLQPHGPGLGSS
Chain of Cytochrome P450 2C19 (P33261 whole entry): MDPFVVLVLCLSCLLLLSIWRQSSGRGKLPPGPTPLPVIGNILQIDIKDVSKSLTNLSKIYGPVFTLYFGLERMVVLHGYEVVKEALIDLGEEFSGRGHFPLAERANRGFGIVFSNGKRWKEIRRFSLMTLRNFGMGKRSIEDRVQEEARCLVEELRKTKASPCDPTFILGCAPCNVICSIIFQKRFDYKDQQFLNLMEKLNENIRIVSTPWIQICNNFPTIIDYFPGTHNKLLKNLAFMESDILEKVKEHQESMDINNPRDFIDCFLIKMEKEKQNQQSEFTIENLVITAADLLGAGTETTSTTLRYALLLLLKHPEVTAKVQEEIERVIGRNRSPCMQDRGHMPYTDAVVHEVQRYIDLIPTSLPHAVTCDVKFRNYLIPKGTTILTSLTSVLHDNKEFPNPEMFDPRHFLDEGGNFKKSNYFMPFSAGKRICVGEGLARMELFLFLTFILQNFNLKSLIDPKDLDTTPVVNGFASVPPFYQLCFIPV

Take `CCOC(=O)[C@@H](Cc1cn(C)c2ccccc12)NC(=O)[C@@H](N)CC(C)C.Cl`: the Activity entry in data set [1], in data set [21] and in data set [24] was “Non-Toxic” in each case. Also, the bioavailability (usually dose-corrected exposure relative to a reference, in per cent) was 61.8% in data set [2] and 50.1% in [13]. Moreover, the remaining at 24 h, 5 µM in data set [3] is 30%; in [15], 87%. At CYP3A4, the IC50 shift is 7. In addition, the Stabilty came to 87% in data set [4] and 90% in data set [18]. Also, in [5], the no-observed-adverse-effect level (NOAEL) (in general, the highest tested level that showed no adverse finding) was found to be 60 mg/kg. Besides, in data set [6], the no observed adverse effect level (NOAEL) at 672 h was found to be 120 mg/kg. In addition, the figures for the concentration for half-maximal inhibition (IC50) (in data set [7]; against Cytochrome P450 2C19; on OAT3) were above 50 µM, 47 µM and above 50 µM, respectively. For the same compound, in data set [8], the fraction unbound is 0.5. The Tmax in [9], in data set [10] and in data set [16] was 1 h each time. Further, the Vd (in general, the apparent volume that relates the amount in the body to the concentration in plasma or blood) in [11] amounted to 309 L/kg. Moreover, in data set [12], the remaining at 6 h is 53%. Further, the AUC (in general, concentration integrated over time) at 24 h in data set [14] is 177 µM·h. In [17], this compound yielded an F of 6%. Besides, the Ratio in data set [19] was 690. The Drug metabolism result in data set [20] was “Metabolite_Detected”. Also, the remaining at 24 h in [22] was determined as 6%. In [23], the log partition coefficient (logP) (commonly a log measure of how a compound divides between an organic and an aqueous phase) is 2.6. Further, in [25], the AUC at 12 h amounted to 1380 µM·h.

Turning to `Cn1cc(C[C@@H](N)C(=O)O)c2ccccc21` [INDOXIMOD], the Cmax (usually the peak of the concentration-time curve) is above 16 µM in data set [26] and 103 µM in [30]. Further, the bioavailability in data set [27] came out at 50%. In data set [28], the solubility – broadly, the dissolved amount per volume that the medium holds – was above 20 mg/mL. Also, the area under the curve AUC(0-inf) (usually the area under the concentration-time curve extrapolated to infinity) in data set [29] was determined as 170 µM·h. Moreover, the half-life (usually how long it takes for the measured level to halve) in [31] is 2.2 h. Besides, the CL/F (usually the apparent clearance, not corrected for the fraction that reaches the circulation) in data set [32] was 16.2 mL/min/kg; in [33], 17.6 mL/min/kg. The Cave in data set [34] is above 7 µM.
